Test results published in ChEMBL document CHEMBL1201862, “PubChem BioAssay data set” (2004).
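How tested: cells in 96-well plates exposed to compound for 48 hours at five concentrations. Abbreviation: GI50, concentration required for 50% inhibition of growth.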 Calls of active or inactive are those of the source. Rule as the data show it: active = GI50 up to about 1.1 µM and inactive = higher.

Legend:
Assay in all cases: NCI tumour cell line growth inhibition, 48 h
Hs-578T = tested on: Hs-578T
LOX IMVI = tested on: LOX IMVI
SF-295 = tested on: SF-295
K562 = tested on: K562
A498 = tested on: A498
COLO 205 = tested on: COLO 205
HCT-116 = tested on: HCT-116
SK-MEL-2 = tested on: SK-MEL-2
NCI-H23 = tested on: NCI-H23
U-251 = tested on: U-251
NCI-H522 = tested on: NCI-H522
MDA-MB-231 = tested on: MDA-MB-231
HCT-15 = tested on: HCT-15
OVCAR-8 = tested on: OVCAR-8
HCC 2998 = tested on: HCC 2998
NCI-H226 = tested on: NCI-H226
SNB-19 = tested on: SNB-19
BT-549 = tested on: BT-549
MCF7 = tested on: MCF7
HOP-62 = tested on: HOP-62
M14 = tested on: M14
IGROV-1 = tested on: IGROV-1
DU-145 = tested on: DU-145
OVCAR-3 = tested on: OVCAR-3
HT-29 = tested on: HT-29
SK-MEL-5 = tested on: SK-MEL-5
SF-268 = tested on: SF-268
A549 = tested on: A549
SK-MEL-28 = tested on: SK-MEL-28
SNB-75 = tested on: SNB-75
RXF 393 = tested on: RXF 393
CCRF-CEM = tested on: CCRF-CEM
OVCAR-5 = tested on: OVCAR-5
ACHN = tested on: ACHN
HL-60 = tested on: HL-60
UACC-257 = tested on: UACC-257
SK-OV-3 = tested on: SK-OV-3
NCI/ADR-RES = tested on: NCI/ADR-RES
Malme-3M = tested on: Malme-3M
TK-10 = tested on: TK-10
786-0 = tested on: 786-0
SF-539 = tested on: SF-539
SW-620 = tested on: SW-620
NCI-H460 = tested on: NCI-H460
EKVX = tested on: EKVX
MDA-N = tested on: MDA-N
MDA-MB-435 = tested on: MDA-MB-435
OVCAR-4 = tested on: OVCAR-4
PC-3 = tested on: PC-3
SN12C = tested on: SN12C
UO-31 = tested on: UO-31
UACC-62 = tested on: UACC-62
HOP-92 = tested on: HOP-92

Compound: C[C@H]1O[C@@H](c2c(O)ccc3ccccc23)C[C@@H](N(C)C)C1O (stereo partly drawn)
- GI50 (Hs-578T): 80.4 µM (inactive)
- GI50 (LOX IMVI): > 100 µM (inactive)
- GI50 (SF-295): > 100 µM (inactive)
- GI50 (K562): > 100 µM (inactive)
- GI50 (A498): 51.9 µM (inactive)
- GI50 (COLO 205): 65.3 µM (inactive)
- GI50 (HCT-116): > 100 µM (inactive)
- GI50 (SK-MEL-2): > 100 µM (inactive)
- GI50 (NCI-H23): > 100 µM (inactive)
- GI50 (U-251): > 100 µM (inactive)
- GI50 (NCI-H522): > 100 µM (inactive)
- GI50 (MDA-MB-231): > 100 µM (inactive)
- GI50 (HCT-15): > 100 µM
- GI50 (OVCAR-8): > 100 µM (inactive)
- GI50 (HCC 2998): 36.6 µM (inactive)
- GI50 (NCI-H226): 43.7 µM (inactive)
- GI50 (SNB-19): > 100 µM (inactive)
- GI50 (BT-549): > 100 µM (inactive)
- GI50 (MCF7): > 100 µM (inactive)
- GI50 (HOP-62): > 100 µM (inactive)
- GI50 (M14): 78.5 µM (inactive)
- GI50 (IGROV-1): 73.6 µM (inactive)
- GI50 (DU-145): > 100 µM (inactive)
- GI50 (OVCAR-3): > 100 µM (inactive)
- GI50 (HT-29): 54.6 µM (inactive)
- GI50 (SK-MEL-5): 40.4 µM (inactive)
- GI50 (SF-268): > 100 µM (inactive)
- GI50 (A549): > 100 µM (inactive)
- GI50 (SK-MEL-28): 97.5 µM (inactive)
- GI50 (SNB-75): 43.8 µM (inactive)
- GI50 (RXF 393): 20.7 µM (inactive)
- GI50 (CCRF-CEM): > 100 µM (inactive)
- GI50 (OVCAR-5): > 100 µM (inactive)
- GI50 (ACHN): > 100 µM (inactive)
- GI50 (HL-60): 85.1 µM (inactive)
- GI50 (UACC-257): 26.5 µM (inactive)
- GI50 (SK-OV-3): > 100 µM (inactive)
- GI50 (NCI/ADR-RES): > 100 µM (inactive)
- GI50 (Malme-3M): 48 µM (inactive)
- GI50 (TK-10): 41.3 µM (inactive)
- GI50 (786-0): 91.6 µM (inactive)
- GI50 (SF-539): > 100 µM (inactive)
- GI50 (SW-620): > 100 µM (inactive)
- GI50 (NCI-H460): 52.7 µM (inactive)
- GI50 (EKVX): > 100 µM (inactive)
- GI50 (MDA-N): > 100 µM (inactive)
- GI50 (MDA-MB-435): > 100 µM (inactive)
- GI50 (OVCAR-4): > 100 µM (inactive)
- GI50 (PC-3): 48.3 µM (inactive)
- GI50 (SN12C): > 100 µM (inactive)
- GI50 (UO-31): 41.4 µM (inactive)
- GI50 (UACC-62): 81.3 µM (inactive)
- GI50 (HOP-92): 24.2 µM (inactive)
